Measurements reported in US5849776A, “Medicaments based on metronidazole or on a synergic mixture of metronidazole and clindamycin” (Centre International de Recherches Dermatologiques Galderma …, priority 1994, dated 1998).
Entries after “also recorded” stand apart in the source; their conditions may differ.

Legend:
[1] = test system: oedema of the ear of the mouse induced by topical application of arachidonic acid; experiment: oedema of the ear of the mouse induced by topical application of arachidonic acid (in vivo topical anti-inflammatory activity); details: for % Inhibition of the oedema After 1 h: 1 h after arachidonic acid; for % Inhibition of the oedema After 1 h / % Inhibition of the oedema After 2 h: each active 2% in acetone solution, topical, 25 μl twice daily for 4 days plus last application 2 h before arachidonic acid, vs other ear pretreated with acetone only; for % Inhibition of the oedema After 2 h: 2 h after arachidonic acid; for anti-inflammatory activity (in words): in vivo topical application
From the text: The test used to evaluate this activity is that of oedema of the ear of the mouse induced by topical application of arachidonic acid. According to this model, the topical application of arachidonic acid to the ear causes an inflammation which is characterized by the rapid development of an oedema, the latter becoming maximum at the end of one hour after application. The oedematous response is then quantified by measuring the thickness of the ear.
The exact operating protocol is the following: the mice are first of all pretreated with the active product(s) to be evaluated, two topical applications per day (2×25 μl; one application in the morning and the other in the evening) being carried out on one of their ears of an acetone solution containing, at a given concentration, this or these active principle(s); this pretreatment is carried out for four consecutive days. Then, on the fifth day, the mice receive a last application (25 μl) of the solution containing the active principle(s) to be tested, which takes place two hours before the application to the ear thus pretreated of the arachidonic acid intended to produce the oedema (25 μl of a THF/methanol solution containing 4 weight % of arachidonic acid). The oedematous response is then quantified by measuring the thickness of the ear 1 hour and 2 hours after application of the arachidonic acid solution.

[2] = test system: oedema of the ear of the mouse induced by topical application of arachidonic acid; details: conventional agents, general statement on the model; cited from earlier work

| Structure (SMILES) | % Inhibition of the oedema After 1 h [1] | % Inhibition of the oedema After 2 h [1] | anti-inflammatory activity (in words) [1] | inhibition in this model (in words) [2] |
| --- | --- | --- | --- | --- |
| CCC[C@@H]1C[C@@H](C(=O)N[C@@H]([C@H]2O[C@H](SC)[C@H](O)[C@@H](O)[C@H]2O)[C@H](C)Cl)N(C)C1 [Clindamycin] | (ni) | (ni) | does not, by itself, have any significant activity; also recorded: no, or substantially no, anti-inflammatory activity | – |
| Cc1ncc([N+](=O)[O-])n1CCO [Metronidazole, 2-methyl-5-nitroimidazole-1-ethanol] | 20% | 36% | good anti-inflammatory activity after in vivo topical application | – |
| COc1ccc2c(c1)c(CC(=O)O)c(C)n2C(=O)c1ccc(Cl)cc1 [indomethacin] | – | – | – | good inhibitors in this model |
| COc1ccc2cc([C@H](C)C(=O)O)ccc2c1 [naproxen] | – | – | – | good inhibitors in this model |
| CCCCC1C(=O)N(c2ccccc2)N(c2ccccc2)C1=O [phenylbutazone] | – | – | – | good inhibitors in this model |
